Experimental data from patent US20080207645A1, “Pyridothienopyrimidine Derivatives” (priority 2004, published 2008).

These compounds were tested on PDE4 (assay: PDE4 Assay Procedure ([3H]-cAMP SPA)). Settings: 15 nM [3H]-cAMP, 1 hour at room temperature, SPA beads.
Format: biochemical
Method: Compounds to be tested were resuspended in DMSO at a stock concentration of 1 mM. […] These dilutions were done in 96-well plates. In some cases, plates containing diluted compounds were frozen before being assayed. In these cases, the plates were thawed at room temperature and stirred for 15 minutes.
Ten microliters of the diluted compounds were poured into a “low binding” assay plate. […] The reaction was initiated by adding ten microliters of a solution containing PDE4. The plate was then incubated under stirring for 1 hour at room temperature. After incubation the reaction was stopped with 50 microlitres of SPA beads, and the reaction was allowed to incubate for another 20 minutes at room temperature before measuring radioactivity using standard instrumentation.
The reaction mixture was prepared by adding 90 ml of H2O to 10 ml of 10× assay buffer (500 mM Tris pH 7.5, 83 mM MgCl2, 17 mM EGTA), and 40 microlitres 1 μCi/μL [3H]-cAMP. SPA beads solution was prepared by adding 500 mg to […] H2O for a final concentration of 20 mg/ml beads and 18 mM zinc sulphate.

Row | IC50 [nM] | Compound
1 | 32 | CC1(C)Cc2c(c(N3CCCC3)nc3sc4c(NCc5ccncc5)ncnc4c23)CO1 [Example 71, 2,2-Dimethyl-N-(pyridin-4-ylmethyl)-5-pyrrolidin-1-yl-1,4-dihydro-2H-pyrano[4″,3″:4′,5′]pyrido[3′,2′:4,5]thieno[3,2-d]pyrimidin-8-amine]
2 | 24 | CCCc1nc2sc3c(NCc4cccnc4)ncnc3c2c2c1COC(C)(C)C2 [Example 72, 2,2-Dimethyl-5-propyl-N-(pyridin-3-ylmethyl)-1,4-dihydro-2H-pyrano[4″,3″:4′,5′]pyrido[3′,2′:4,5]thieno[3,2-d]pyrimidin-8-amine]
3 | 22 | CC(C)Cc1nc2sc3c(NCc4cccnc4)ncnc3c2c2c1COC(C)(C)C2 [Example 74, 5-Isobutyl-2,2-dimethyl-N-(pyridin-3-ylmethyl)-1,4-dihydro-2H-pyrano[4″,3″:4′,5′]pyrido[3′,2′:4,5]thieno[3,2-d]pyrimidin-8-amine]
4 | 13 | CCC1(C)Cc2c(c(N3CCOCC3)nc3sc4c(NCc5cccnc5)ncnc4c23)CO1 (stereo not drawn) [Example 80, 2-Ethyl-2-methyl-5-morpholin-4-yl-N-(pyridin-3-ylmethyl)-1,4-dihydro-2H-pyrano[4″,3″:4′,5′]pyrido[3′,2′:4,5]thieno[3,2-d]pyrimidin-8-amine]

The next lines start with the compound.

Row | Compound | IC50 [nM]
5 | CC1(C)Cc2c(c(N3CCOCC3)nc3sc4c(NCCN5CCOCC5)ncnc4c23)CO1 [Example 20, 2,2-Dimethyl-5-morpholin-4-yl-N-(2-morpholin-4-ylethyl)-1,4-dihydro-2H-pyrano[4″,3″:4′,5′]pyrido[3′,2′:4,5]thieno[3,2-d]pyrimidin-8-amine] | 26
6 | CC1(C)Cc2c(c(N3CCCC3)nc3sc4c(NCCN5CCOCC5)ncnc4c23)CO1 [Example 27, 2,2-Dimethyl-5-pyrrolidin-1-yl-N-(2-morpholin-4-ylethyl)-1,4-dihydro-2H-pyrano[4″,3″:4′,5′]pyrido[3′,2′:4,5]thieno[3,2-d]pyrimidin-8-amine] | 23
7 | CC1(C)Cc2c(c(N3CCOCC3)nc3sc4c(NCc5cccnc5)ncnc4c23)CO1 [Example 36, 2,2-dimethyl-5-morpholin-4-yl-N-(pyridin-3-ylmethyl)-1,4-dihydro-2H-pyrano[4″,3″:4′,5′]pyrido[3′,2′:4,5]thieno[3,2-d]pyrimidin-8-amine] | 4.6
8 | CC1(C)Cc2c(c(N3CCOCC3)nc3sc4c(NCc5ccccn5)ncnc4c23)CO1 [Example 37, 2,2-dimethyl-5-morpholin-4-yl-N-(pyridin-2-ylmethyl)-1,4-dihydro-2H-pyrano[4″,3″:4′,5′]pyrido[3′,2′:4,5]thieno[3,2-d]pyrimidin-8-amine] | 21
9 | CCCc1nc2sc3c(NCCN4CCOCC4)ncnc3c2c2c1COC(C)(C)C2 [Example 38, 2,2-dimethyl-N-(2-morpholin-4-ylethyl)-5-propyl-1,4-dihydro-2H-pyrano[4″,3″:4′,5′]pyrido[3′,2′:4,5]thieno[3,2-d]pyrimidin-8-amine] | 19
10 | CC(C)c1nc2sc3c(NCc4ccccn4)ncnc3c2c2c1COC(C)(C)C2 [Example 46, 2,2-Dimethyl-5-isopropyl-N-(pyridin-2-ylmethyl)-1,4-dihydro-2H-pyrano[4″,3″:4′,5′]pyrido[3′,2′:4,5]thieno[3,2-d]pyrimidin-8-amine] | 14
11 | CC1(C)Cc2c(c(N3CCOCC3)nc3sc4c(NCc5ccncc5)ncnc4c23)CO1 [Example 55, 2,2-Dimethyl-5-morpholin-4-yl-N-(pyridin-4-ylmethyl)-1,4-dihydro-2H-pyrano[4″,3″:4′,5′]pyrido[3′,2′:4,5]thieno[3,2-d]pyrimidin-8-amine] | 19
12 | COCCN(C)c1nc2sc3c(NCc4cccnc4)ncnc3c2c2c1COC(C)(C)C2 [Example 59, N-(2-Methoxyethyl)-N,2,2-trimethyl-N-(pyridin-3-ylmethyl)-1,4-dihydro-2H-pyrano[4″,3″:4′,5′]pyrido[3′,2′:4,5]thieno[3,2-d]pyrimidine-5,8-diamine.] | 61
